Assay results reported in patent US20150246907A1 (ETH Zurich, priority 2012, published 2015).
In brackets after ≈: the same amount, converted by molar mass.

Test system: Mycobacterium tuberculosis strain H37Rv
Experiment: Minimal inhibitory concentration (MIC) by resazurin microtitre assay (REMA)
Type: cell-based
Conditions: for MIC: Mycobacterium tuberculosis, 168 h, M. tuberculosis H37Rv, REMA, 7 days (10 generations), 96-well plate

| SMILES | MIC [µg/mL] | activity against Mycobacterium tuberculosis (strain H37Rv) compared with pyridomycin (strain H37Rv, statement in words) |
| --- | --- | --- |
| CC(C)[C@H]1OC(=O)[C@H](C)[C@H](O)[C@H](Cc2cccnc2)NC(=O)[C@@H](NC(=O)c2ncccc2O)[C@@H](C)OC1=O [Analog 100b] | 1.56 (≈ 2.95 µM) | in the same range of inhibitory activity as for pyridomycin |
| CC(C)[C@@H]1OC(=O)[C@H](C)[C@H](O)[C@H](Cc2cccnc2)NC(=O)[C@@H](NC(=O)c2ncccc2O)[C@@H](C)OC1=O [Analog 100a] | 12.5 (≈ 23.6 µM) |  |
